Source: the NIST ThermoML archive (doi:10.1016/j.jct.2006.05.008)
Numbers after ± are expanded uncertainties.

Experiment: molar heat capacity at constant pressure; wn = mass fraction of the nth substance listed
Details: Small (less than 1 g) adiabatic calorimetry

CCCCn1cc[n+](C)c1.[Br-] [1-butyl-3-methylimidazolium bromide] + O
Crystal
Details | molar heat capacity at constant pressure [J/K/mol]
257.1 K, w2 = 0.0169 | 211.52 ± 1.1
257.12 K, w2 = 0.00482 | 207.32 ± 1
257.24 K, w2 = 0.0495 | 210.08 ± 1
257.33 K, w2 = 0.0051 | 208.6 ± 1
257.89 K, w2 = 0.00482 | 208.45 ± 1
258.27 K, w2 = 0.0051 | 209.35 ± 1
258.32 K, w2 = 0.00482 | 208.23 ± 1
258.68 K, w2 = 0.00482 | 208.41 ± 1
258.78 K, w2 = 0.0169 | 213.4 ± 1.1
259.16 K, w2 = 0.0169 | 213.8 ± 1.1
259.51 K, w2 = 0.0495 | 213.48 ± 1.1
259.61 K, w2 = 0.0051 | 210.47 ± 1
259.93 K, w2 = 0.0051 | 210.82 ± 1
259.98 K, w2 = 0.00482 | 210.49 ± 1
260.24 K, w2 = 0.00482 | 209.97 ± 1
260.65 K, w2 = 0.00482 | 210.2 ± 1
260.87 K, w2 = 0.0169 | 215.76 ± 1.1
260.94 K, w2 = 0.0051 | 211.8 ± 1.1
261.22 K, w2 = 0.0169 | 216.33 ± 1.1
261.77 K, w2 = 0.0495 | 217.08 ± 1.1
262.06 K, w2 = 0.00482 | 211.93 ± 1
262.28 K, w2 = 0.0051 | 212.88 ± 1.1
262.52 K, w2 = 0.0051 | 213.06 ± 1.1
262.95 K, w2 = 0.0169 | 218.39 ± 1.1
262.98 K, w2 = 0.00482 | 212.09 ± 1
263.28 K, w2 = 0.0169 | 218.78 ± 1.1
263.78 K, w2 = 0.0051 | 214.35 ± 1.1
264.01 K, w2 = 0.0495 | 220.81 ± 1.1
264.14 K, w2 = 0.00482 | 213.82 ± 1.1
265.04 K, w2 = 0.0169 | 221.03 ± 1.1
265.12 K, w2 = 0.0051 | 215.36 ± 1.1
265.24 K, w2 = 0.0051 | 215.65 ± 1.1
265.32 K, w2 = 0.00482 | 214.05 ± 1.1
265.34 K, w2 = 0.0169 | 221.47 ± 1.1
266.23 K, w2 = 0.0495 | 224.56 ± 1.1
266.24 K, w2 = 0.00482 | 216.31 ± 1.1
266.58 K, w2 = 0.0051 | 216.86 ± 1.1
267.13 K, w2 = 0.0169 | 223.7 ± 1.1
267.4 K, w2 = 0.0169 | 224.14 ± 1.1
267.66 K, w2 = 0.00482 | 216.04 ± 1.1
267.71 K, w2 = 0.0051 | 217.69 ± 1.1
268.43 K, w2 = 0.0495 | 228.48 ± 1.1
269.22 K, w2 = 0.0169 | 226.58 ± 1.1
269.45 K, w2 = 0.0169 | 226.98 ± 1.1
270 K, w2 = 0.00482 | 218.06 ± 1.1
270.31 K, w2 = 0.0051 | 220.13 ± 1.1
270.61 K, w2 = 0.0495 | 232.41 ± 1.1
271.3 K, w2 = 0.0169 | 229.49 ± 1.1
271.51 K, w2 = 0.0169 | 229.82 ± 1.1
272.34 K, w2 = 0.00482 | 220.16 ± 1.1
272.91 K, w2 = 0.0051 | 222.62 ± 1.1
273.18 K, w2 = 0.0495 | 242 ± 1.2
273.57 K, w2 = 0.0169 | 232.77 ± 1.1
275.36 K, w2 = 0.00482 | 223.11 ± 1.1
275.51 K, w2 = 0.0051 | 225.17 ± 1.1
275.62 K, w2 = 0.0169 | 235.94 ± 1.1
276.24 K, w2 = 0.0495 | 247.28 ± 1.2
277.2 K, w2 = 0.00482 | 225.01 ± 1.1
278.11 K, w2 = 0.0051 | 227.74 ± 1.1
279.23 K, w2 = 0.0169 | 242.23 ± 1.2
279.26 K, w2 = 0.0495 | 254.65 ± 1.2
279.32 K, w2 = 0.00482 | 227.27 ± 1.1
279.78 K, w2 = 0.00482 | 229.54 ± 1.1
280.71 K, w2 = 0.0051 | 230.48 ± 1.1
281.42 K, w2 = 0.00482 | 229.46 ± 1.1
282.24 K, w2 = 0.0495 | 262.55 ± 1.3
283.31 K, w2 = 0.0051 | 233.23 ± 1.1
283.5 K, w2 = 0.00482 | 230.68 ± 1.1
284.39 K, w2 = 0.0169 | 251.43 ± 1.2
285.17 K, w2 = 0.0495 | 271.18 ± 1.3
285.58 K, w2 = 0.00482 | 233.7 ± 1.1
285.91 K, w2 = 0.0051 | 236.24 ± 1.1
287.66 K, w2 = 0.00482 | 235.67 ± 1.1
288.14 K, w2 = 0.0495 | 280.22 ± 1.3
288.51 K, w2 = 0.0051 | 239.25 ± 1.2
289.53 K, w2 = 0.0169 | 262.01 ± 1.3
289.74 K, w2 = 0.00482 | 238.04 ± 1.1
290.97 K, w2 = 0.0495 | 290.4 ± 1.4
291.11 K, w2 = 0.0051 | 242.54 ± 1.2
291.83 K, w2 = 0.00482 | 240.73 ± 1.2
293.7 K, w2 = 0.0051 | 246.11 ± 1.2
293.74 K, w2 = 0.0495 | 300.57 ± 1.4
293.9 K, w2 = 0.00482 | 243.2 ± 1.2
294.65 K, w2 = 0.0169 | 274.42 ± 1.3
295.05 K, w2 = 0.00482 | 246.53 ± 1.2
295.98 K, w2 = 0.00482 | 245.88 ± 1.2
296.3 K, w2 = 0.0051 | 249.8 ± 1.2
296.46 K, w2 = 0.0495 | 310.98 ± 1.4
298.06 K, w2 = 0.00482 | 248.83 ± 1.2
298.89 K, w2 = 0.0051 | 253.84 ± 1.2
299.11 K, w2 = 0.0495 | 321.36 ± 1.5
299.76 K, w2 = 0.0169 | 289.83 ± 1.4
300.14 K, w2 = 0.00482 | 252.27 ± 1.2
301.49 K, w2 = 0.0051 | 258.28 ± 1.2
301.7 K, w2 = 0.0495 | 332.6 ± 1.5
303.76 K, w2 = 0.00482 | 260.04 ± 1.2
304.07 K, w2 = 0.0051 | 263.07 ± 1.2
304.21 K, w2 = 0.0495 | 344.68 ± 1.6
306.66 K, w2 = 0.0051 | 268.79 ± 1.3
306.66 K, w2 = 0.0495 | 358.21 ± 1.6
309.04 K, w2 = 0.0495 | 371.9 ± 1.7
309.23 K, w2 = 0.0051 | 274.95 ± 1.3
311.81 K, w2 = 0.0051 | 281.91 ± 1.3
314.38 K, w2 = 0.0051 | 289.81 ± 1.4

101 kPa, Liquid
Details | molar heat capacity at constant pressure [J/K/mol]
258.42 K, w2 = 0.0495 | 201.89 ± 1
260.51 K, w2 = 0.0495 | 202.44 ± 1
262.59 K, w2 = 0.0495 | 203.15 ± 1
264.68 K, w2 = 0.0495 | 203.66 ± 1
266.76 K, w2 = 0.0495 | 204.28 ± 1
268.85 K, w2 = 0.0495 | 204.83 ± 1
271.36 K, w2 = 0.0495 | 205.69 ± 1
274.29 K, w2 = 0.0495 | 206.48 ± 1
277.23 K, w2 = 0.0495 | 207.26 ± 1
280.16 K, w2 = 0.0495 | 208.13 ± 1
283.1 K, w2 = 0.0495 | 209.06 ± 1
286.03 K, w2 = 0.0495 | 209.95 ± 1
288.97 K, w2 = 0.0495 | 210.91 ± 1
291.91 K, w2 = 0.0495 | 211.72 ± 1
294.84 K, w2 = 0.0495 | 212.72 ± 1
297.78 K, w2 = 0.0495 | 213.47 ± 1.1
300.72 K, w2 = 0.0495 | 214.41 ± 1.1
303.65 K, w2 = 0.0495 | 215.41 ± 1.1
306.59 K, w2 = 0.0495 | 216.44 ± 1.1
309.53 K, w2 = 0.0495 | 217.39 ± 1.1
312.47 K, w2 = 0.0495 | 218.35 ± 1.1
315.41 K, w2 = 0.0495 | 219.31 ± 1.1
321.27 K, w2 = 0.0495 | 221.21 ± 1.1
330.56 K, w2 = 0.0495 | 224.12 ± 1.1
333.86 K, w2 = 0.0495 | 225.96 ± 1.1
337.13 K, w2 = 0.0495 | 227.18 ± 1.1
340.39 K, w2 = 0.0495 | 228.38 ± 1.1
343.64 K, w2 = 0.0495 | 229.51 ± 1.1
346.87 K, w2 = 0.0495 | 230.63 ± 1.1
350.08 K, w2 = 0.0495 | 232.05 ± 1.1
352.35 K, w2 = 0.0169 | 289.81 ± 1.4
353.26 K, w2 = 0.0495 | 232.65 ± 1.1
355.87 K, w2 = 0.0051 | 320.97 ± 1.5
356.41 K, w2 = 0.0495 | 233.93 ± 1.1
357.85 K, w2 = 0.00482 | 320.3 ± 1.5
358.14 K, w2 = 0.0169 | 293.37 ± 1.4
358.58 K, w2 = 0.0051 | 322.63 ± 1.5
361.53 K, w2 = 0.0495 | 236.39 ± 1.1
363.43 K, w2 = 0.0169 | 295.6 ± 1.4
364.71 K, w2 = 0.0495 | 237.6 ± 1.2
367.1 K, w2 = 0.00482 | 323.63 ± 1.5
367.89 K, w2 = 0.0495 | 238.53 ± 1.2
